# Laboratory results published in patent US20240336587A1, “CANNABICHROMENE DERIVATIVES AND METHODS FOR MAKING AND USING THE SAME” (University of Mississippi, priority 2021, published 2024).
# Entries after “also recorded” stand apart in the source; their conditions may differ.
# What was measured:
# [1] = after parenteral administration; cited from earlier work
# [2] = system: thermal nociception in C57BL/6 mice; test: Hot plate test (thermal nociception, 52° C.); assay type: in vivo; conditions: mouse, IP 30 minutes prior; FIG. 4B
# Protocol: (§1) CBC and CBC-val-HS were dissolved in a solution of 10% ethanol/10% cremophore and 80% saline. Mice received IP injection of test compounds in a volume of 1.0 ml/kg for the abdominal writhing assay and 1.0 ml/kg, IP in the hot plate assay. For pharmacokinetic studies, drug was given in a volume of 1.0 ml/kg for tail vein and oral gavage administration. CBC-val-HS doses were calculated to be the dose equivalent of CBC.
# All experimental procedures were approved by the University of Mississippi Institutional Animal Care and Use Committee (Protocol #19-009). Animal studies reported in compliance with the ARRIVE guidelines. Male wild-type C57BL/6 mice (7-10 weeks, 17-30 grams) were used for all behavioral studies and Male CD-1 (6-7 weeks, 20-25 grams) were used for all pharmacokinetic studies. Mice were purchased from Envigo, (Indianapolis, IN, USA) and acclimated for one week prior to experimentation. Mice were group-housed (n=4-5) in a polycarbonate tub with soft bedding in a temperature (22°±2) and humidity-controlled vivarium under a normal 12:12 h light/dark cycle (lights on at 06:00) with food and water ad libitum. Behavioral testing was performed during the hours of 08:00-18:00 with 30-minute acclimation to the testing room for all studies. […]
# The hot plate (Harvard Instruments, Model #52-8570) was used to quantify thermal nociception. […]
# [3] = Pharmacokinetic study, plasma levels by LC-MS-MS; assay type: in vivo, mouse
# Protocol: as §1
# (§2) All experimental procedures were approved by the University of Mississippi Institutional Animal Care and Use Committee (Protocol #19-009). Animal studies reported in compliance with the ARRIVE guidelines. Male wild-type C57BL/6 mice (7-10 weeks, 17-30 grams) were used for all behavioral studies and Male CD-1 (6-7 weeks, 20-25 grams) were used for all pharmacokinetic studies. Mice were purchased from Envigo, (Indianapolis, IN, USA) and acclimated for one week prior to experimentation. Mice were group-housed (n=4-5) in a polycarbonate tub with soft bedding in a temperature (22°±2) and humidity-controlled vivarium under a normal 12:12 h light/dark cycle (lights on at 06:00) with food and water ad libitum. Behavioral testing was performed during the hours of 08:00-18:00 with 30-minute acclimation to the testing room for all studies. Mice were assigned treatments through random block assignment per cage and experimenters were blinded to treatment conditions. Equipment was thoroughly sanitized with 70% ethanol between mice.
# A pharmacokinetic study of CBC and CBC-val-HS was conducted using either intraperitoneal (IP), oral gavage, or and intravenous (IV; lateral tail vein) administration routes. For each route, four to five subjects were sacrificed at 0, 0.05, 0.25, 0.5, 1, 2, 4, 8, and 24 hr after drug administration. Mice were anesthetized with isoflurane, and whole blood was collected by cardiac puncture. Plasma was isolated by centrifugation (2000 rpm, 5 min) and stored at −80° C. until assayed.
# For CBC in the plasma samples were extracted using solid phase cartridges. CBC-VHS plasma samples were diluted with cold acetonitrile, sonicated, centrifuged, transferred supernatant to another extraction tube, evaporated the solvent and reconstituted with acetonitrile for the analysis. The LC-MS-MS system consists of a Shimadzu Prominence UHPLC with a dual pump, a vacuum solvent micro-degasser, a controlled-temperature auto-sampler, and an MS-MS detector (Applied Biosystems/MSD Sciex QTRAP 4500/3200 with a turbo-ion ESI source operating the positive-ion multiple reaction monitoring, or MRM, mode). […] Deuterated internal standard D3-CBC was used for the quantitation of CBC and CBCVHS. The peak area corresponding to each extracted MRM was measured and correlated to a multiple point calibration curve to determine the plasma concentration of each analyte. […]
# [4] = system: inflammatory nociception (acetic acid-induced abdominal writhes) in C57BL/6 mice; test: Abdominal writhing test (acetic acid-induced writhes); assay type: in vivo; conditions: mouse; for efficacy in abdominal writhing (racemate, diastereoisomers, CBC vs vehicle): one-way ANOVA post-hoc Bonferroni, FIG. 4A
# Protocol: as §1, §2
# Abdominal writhing testing was used to quantify inflammatory nociception. Testing was conducted in clear, open-top, acrylic observation chambers (12.7×15.24 cm) located on a smooth surface. Test compounds were administered IP 30 minutes prior to behavioral testing. For testing, mice were then given an IP injection of 0.7% acetic acid in a volume of 10.0 ml/1 kg and immediately placed in an observation chamber for 30-minute test. The number of abdominal writhes served as the dependent measure.
# intestinal inflammation = conditions: far lower doses; cited from earlier work
# paw edema = conditions: restricted to high doses of over 100 mg/kg; cited from earlier work
# nociception = conditions: effect was time-dependent; cited from earlier work
structure (smiles),measurement,setting,value
CCCCCc1cc(OC(=O)C(NC(=O)CCC(=O)O)C(C)C)c2c(c1)OC(C)(C)C1CCC(C)=CC21 (centres unmarked) [THC-Val-HS],presence of the Val-HS derivative in plasma (comparator cannabinoid derivatives),[1],not found in plasma
"CCCCCc1cc(OC(=O)C(NC(=O)CCC(=O)O)C(C)C)c2c(c1)OC(C)(CCC=C(C)C)C=C2 (racemic) [CBC-Val-HS, cannabichromene-valinate-hemisuccinate]",latency to hotplate withdrawal (anti-nociception against thermal pain),[2],displayed anti-nociceptive potential
same,peak concentration relative to peak concentration of CBC at the same dose equivalent,"[3]; intravenous administration, in the hour following administration, FIG. 3A",greater than 10 × higher
same,chemical entity detected in circulating plasma,[3]; parenteral or oral administration to animals,the major chemical component detected in the circulating plasma is the intact CBC-Val-HS; also recorded: a majority of CBC-Val-HS remained intact in circulation
same,fraction observed in the plasma as intact CBC-Val-HS,[3]; plasma after administration,two-thirds
same,fraction of the derivative observed in the plasma as free CBC,[3]; plasma after administration,about one-third
same,number of acid-induced abdominal writhes,"[4]; increasing doses, IP 30 minutes prior to acetic acid injection, FIG. 2",significantly decreased
same,"overall efficacy or potency in comparison to CBC, abdominal writhing","[4]; IP, two-way ANOVA, drug factor F=1.62, p=0.38",No differences in overall efficacy or potency; also recorded: equally efficacious
same,"efficacy in abdominal writhing (racemate, diastereoisomers, CBC vs vehicle)",[4],as effective as CBC
"CCCCCc1cc(O)c2c(c1)OC(C)(CCC=C(C)C)C=C2 (centres unmarked) [CBC, Cannabichromene]",activity against intestinal inflammation in vivo,intestinal inflammation,protective activity
same,anti-inflammatory / anti-edematous properties in vivo,paw edema,"mild anti-inflammatory, or anti-edematous properties"
same,"efficacy in abdominal writhing (racemate, diastereoisomers, CBC vs vehicle)",[4],effective
same,anti-nociceptive effect in tail-flick,nociception,biphasic anti-nociceptive effects
C=C(C)C1CCC(C)=CC1c1c(OC(=O)[C@@H](NC(=O)CCC(=O)O)C(C)C)cc(CCCCC)cc1OC(=O)[C@@H](NC(=O)CCC(=O)O)C(C)C (some centres unmarked) [CBD-Val-HS],presence of the Val-HS derivative in plasma (comparator cannabinoid derivatives),[1],the only entity found in the plasma
